How the values were obtained:
Fms kinase = Fms kinase (Homo sapiens, UniProt P07333); assay: Fms kinase biochemical activity assay (AlphaScreen, biotin-(E4Y)10 phosphorylation); settings: 100 μM ATP; read-out: Biochemical Inhibition IC50 Fms
Summary of the method: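 AlphaScreen read-out (PY20 acceptor, streptavidin donor beads, EDTA stop) of biotin-(E4Y)10 phosphorylation, with IC50 taken from the concentration–signal curve. Reaction: 30 nM substrate, 100 μM ATP, 1 ng/well Fms, Hepes pH 7.5 with Mg2+/Mn2+, 5% DMSO, 20 min at 30 °C.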

BCR-NTRK3 BaF3 cells = biological target: T1, BCR-NTRK3 BaF3 cells (Homo sapiens, UniProt Q16288); assay: BaF3 BCR-NTRK3 cell proliferation assay (ATPlite); format: cell-based; settings: read-out: Inhibition of Cell Proliferation IC50, BCR/BaF3 TrkC
T1 construct: fused on or other part: P11274 (Breakpoint cluster region protein)
T1 sequence (Q16288 whole entry, the tested form may be a part): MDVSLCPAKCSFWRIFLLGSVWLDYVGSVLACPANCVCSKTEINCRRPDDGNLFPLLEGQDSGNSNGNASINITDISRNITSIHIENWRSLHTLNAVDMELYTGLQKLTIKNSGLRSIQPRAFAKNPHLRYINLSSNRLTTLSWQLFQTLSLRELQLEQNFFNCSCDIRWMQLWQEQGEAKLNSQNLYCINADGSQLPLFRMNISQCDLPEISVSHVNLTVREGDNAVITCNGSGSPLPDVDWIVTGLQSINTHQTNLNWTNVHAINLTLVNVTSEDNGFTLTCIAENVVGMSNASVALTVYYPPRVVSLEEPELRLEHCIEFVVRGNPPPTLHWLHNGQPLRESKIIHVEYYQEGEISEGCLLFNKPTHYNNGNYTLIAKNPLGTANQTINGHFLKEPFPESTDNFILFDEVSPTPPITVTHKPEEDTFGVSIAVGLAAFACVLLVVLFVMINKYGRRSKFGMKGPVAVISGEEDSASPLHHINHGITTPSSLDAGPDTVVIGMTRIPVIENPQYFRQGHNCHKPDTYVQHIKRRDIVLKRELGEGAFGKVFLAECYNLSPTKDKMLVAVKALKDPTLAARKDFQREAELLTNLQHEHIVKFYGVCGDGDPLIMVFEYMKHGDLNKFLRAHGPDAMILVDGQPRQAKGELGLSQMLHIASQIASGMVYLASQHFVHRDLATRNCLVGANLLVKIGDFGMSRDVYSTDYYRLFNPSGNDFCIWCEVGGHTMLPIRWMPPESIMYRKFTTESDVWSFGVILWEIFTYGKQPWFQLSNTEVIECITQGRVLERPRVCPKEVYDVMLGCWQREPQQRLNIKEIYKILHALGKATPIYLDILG
Summary of the method: (§1)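 IL-3-free growth, 3-day compound exposure (8-point 1:3 titration, top 10 μM, DMSO control), 37 °C 5% CO2. BaF3 10,000 or MV-4-11 25,000 cells/well, plated overnight beforehand. Read-out ATPlite luminescence vs concentration → IC50.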

BCR-NTRK2 BaF3 cells = biological target: T2, BCR-NTRK2 BaF3 cells (Homo sapiens, UniProt Q16620); assay: BaF3 BCR-NTRK2 cell proliferation assay (ATPlite); format: cell-based; settings: read-out: Inhibition of Cell Proliferation IC50, BCR/BaF3 TrkB
T2 construct: fused on or other part: P11274 (Breakpoint cluster region protein)
T2 sequence (Q16620 538-807): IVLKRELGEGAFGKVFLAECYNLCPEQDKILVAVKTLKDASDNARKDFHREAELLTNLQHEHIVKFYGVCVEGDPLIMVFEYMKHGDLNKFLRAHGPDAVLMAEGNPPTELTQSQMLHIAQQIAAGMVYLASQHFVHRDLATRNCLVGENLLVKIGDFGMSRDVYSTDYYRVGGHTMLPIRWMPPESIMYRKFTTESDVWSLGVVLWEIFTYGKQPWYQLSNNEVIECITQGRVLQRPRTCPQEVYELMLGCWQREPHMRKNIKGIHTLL
Summary of the method: as §1

Sequence of Fms kinase (P07333 20-972): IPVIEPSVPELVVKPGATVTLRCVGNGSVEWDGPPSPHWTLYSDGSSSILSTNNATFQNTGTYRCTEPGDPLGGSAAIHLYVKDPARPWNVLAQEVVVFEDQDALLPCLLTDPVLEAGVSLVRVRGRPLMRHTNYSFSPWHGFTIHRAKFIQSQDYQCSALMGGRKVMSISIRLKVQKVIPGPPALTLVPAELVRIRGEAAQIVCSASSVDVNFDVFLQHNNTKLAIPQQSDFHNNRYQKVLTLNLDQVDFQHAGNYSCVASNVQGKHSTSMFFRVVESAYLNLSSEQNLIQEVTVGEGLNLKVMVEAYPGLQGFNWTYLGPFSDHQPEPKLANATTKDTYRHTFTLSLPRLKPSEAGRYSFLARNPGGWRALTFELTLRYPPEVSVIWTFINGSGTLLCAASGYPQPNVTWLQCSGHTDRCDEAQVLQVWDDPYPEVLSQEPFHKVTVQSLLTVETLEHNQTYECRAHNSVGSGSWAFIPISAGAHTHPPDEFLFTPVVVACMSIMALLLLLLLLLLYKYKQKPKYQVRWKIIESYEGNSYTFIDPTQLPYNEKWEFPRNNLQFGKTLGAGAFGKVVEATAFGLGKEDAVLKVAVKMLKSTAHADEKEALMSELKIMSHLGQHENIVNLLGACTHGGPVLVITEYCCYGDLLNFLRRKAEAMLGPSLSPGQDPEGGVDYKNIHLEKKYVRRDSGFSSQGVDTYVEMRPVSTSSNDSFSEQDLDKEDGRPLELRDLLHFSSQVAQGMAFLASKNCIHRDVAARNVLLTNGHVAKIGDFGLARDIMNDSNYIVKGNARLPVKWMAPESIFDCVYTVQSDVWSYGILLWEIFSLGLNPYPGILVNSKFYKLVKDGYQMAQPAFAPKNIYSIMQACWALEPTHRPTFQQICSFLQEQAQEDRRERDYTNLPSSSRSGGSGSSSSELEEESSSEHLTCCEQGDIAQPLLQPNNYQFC

Compound | IC50 (Fms kinase) | IC50 (BCR-NTRK3 BaF3 cells) | IC50 (BCR-NTRK2 BaF3 cells)
Clc1cnc2[nH]cc(Cc3cnc(NC4CCC4)nc3)c2c1 [Compound P-3007, [5-(5-Chloro-1H-pyrrolo[2,3-b]pyridin-3-ylmethyl)-pyrimidin-2-yl]-cyclobutyl-amine] | < 1000 nM | > 10000 nM | > 10000 nM
Cc1cnc2[nH]cc(Cc3ccc(NC4CCCCC4)nc3F)c2c1 [Compound P-3008, cyclohexyl-[6-fluoro-5-(5-methyl-1H-pyrrolo[2,3-b]pyridin-3-ylmethyl)-pyridin-2-yl]-amine] | < 100 nM | – | –
O=C(c1ccc(Nc2ccc(C3CC3)nc2)nc1F)c1c[nH]c2ncnc(C3CC3)c12 [Compound P-4040, [6-(6-Cyclopropyl-pyridin-3-ylamino)-2-fluoro-pyridin-3-yl]-(4-cyclopropyl-7H-pyrrolo[2,3-d]pyrimidin-5-yl)-methanone] | < 100 nM | < 10 nM | < 10 nM
Fc1nc(Nc2ccc(C3CC3)nc2)ccc1Cc1c[nH]c2ncnc(C3CC3)c12 [Compound P-4041, (6-Cyclopropyl-pyridin-3-yl)-[5-(4-cyclopropyl-7H-pyrrolo[2,3-d]pyrimidin-5-ylmethyl)-6-fluoro-pyridin-2-yl]-amine] | < 100 nM | < 10 nM | < 10 nM
Nc1ncnc2[nH]cc(C(=O)c3ccc(Nc4ccc(C5CC5)nc4)nc3F)c12 [Compound P-4048, (4-amino-7H-pyrrolo[2,3-d]pyrimidin-5-yl)-[6-[(6-cyclopropyl-3-pyridyl)amino]-2-fluoro-3-pyridyl]methanone] | < 10 nM | < 10 nM | < 10 nM
CC(C)(O)CNc1ncnc2[nH]cc(C(=O)c3ccc(Nc4ccc(C5CC5)nc4)nc3F)c12 [Compound P-4049, [6-[(6-cyclopropyl-3-pyridyl)amino]-2-fluoro-3-pyridyl]-[4-[(2-hydroxy-2-methyl-propyl)amino]-7H-pyrrolo[2,3-d]pyrimidin-5-yl]methanone] | < 10 nM | < 1000 nM | < 1000 nM

The remaining lines, values ahead:

IC50 (Fms kinase) | IC50 (BCR-NTRK3 BaF3 cells) | IC50 (BCR-NTRK2 BaF3 cells) | Compound
< 100 nM | < 1000 nM | < 1000 nM | Nc1ncnc2[nH]cc(C(=O)c3ccc(NC4CCC(F)(F)CC4)nc3Cl)c12 [Compound P-4046, (4-amino-7H-pyrrolo[2,3-d]pyrimidin-5-yl)-[2-chloro-6-[(4,4-difluorocyclohexyl)amino]-3-pyridyl]methanone]
> 1000 nM | > 1000 nM | > 1000 nM | CC(C)=CNc1ncnc2[nH]cc(C(=O)c3ccc(NC4CCC(F)(F)CC4)nc3Cl)c12 [Compound P-4047, [2-chloro-6-[(4,4-difluorocyclohexyl)amino]-3-pyridyl]-[4-(2-methylprop-1-enylamino)-7H-pyrrolo[2,3-d]pyrimidin-5-yl]methanone]
< 1000 nM | < 1000 nM | < 1000 nM | CCNc1ncnc2[nH]cc(C(=O)c3ccc(NC4CCC(F)(F)CC4)nc3Cl)c12 [Compound P-4050, [2-chloro-6-[(4,4-difluorocyclohexyl)amino]-3-pyridyl]-[4-(ethylamino)-7H-pyrrolo[2,3-d]pyrimidin-5-yl]methanone]
< 1000 nM | < 10 nM | < 10 nM | CCNc1ncnc2[nH]cc(C(=O)c3cnc(NC4CCC(F)(F)CC4)c(F)c3)c12 [Compound P-4051, [6-[(4,4-difluorocyclohexyl)amino]-5-fluoro-3-pyridyl]-[4-(ethylamino)-7H-pyrrolo[2,3-d]pyrimidin-5-yl]methanone]
< 1000 nM | < 10 nM | < 1000 nM | O=C(c1cnc(NC2CCC(F)(F)CC2)c(F)c1)c1c[nH]c2ncnc(NCC(F)(F)F)c12 [Compound P-4052, [6-[(4,4-difluorocyclohexyl)amino]-5-fluoro-3-pyridyl]-[4-(2,2,2-trifluoroethylamino)-7H-pyrrolo[2,3-d]pyrimidin-5-yl]methanone]
< 10 nM | < 10 nM | < 10 nM | O=C(c1cnc(NC2CCC(F)(F)CC2)c(F)c1)c1c[nH]c2ncnc(NC3CC3)c12 [Compound P-4053, [4-(cyclopropylamino)-7H-pyrrolo[2,3-d]pyrimidin-5-yl]-[6-[(4,4-difluorocyclohexyl)amino]-5-fluoro-3-pyridyl]methanone]
< 10 nM | < 10 nM | < 1000 nM | CNc1ncnc2[nH]cc(C(=O)c3cnc(NC4CCC(F)(F)CC4)c(F)c3)c12 [Compound P-4054, [6-[(4,4-difluorocyclohexyl)amino]-5-fluoro-3-pyridyl]-[4-(methylamino)-7H-pyrrolo[2,3-d]pyrimidin-5-yl]methanone]
